Measured values taken from patent US8735150B2, “Methods for detecting embryonic stem cells, induced pluripotent stem cells, or cells undergoing reprogramming to produce induced pluripotent stem cells” (New York University, priority 2010, dated 2014).

Columns and labels:
[1] = tested on: Oct4-GFP transgenic MEF transfected with Oct4, Sox2, Klf4 and c-Myc; assay: CDy1 staining of cells at early stages of reprogramming (fluorescence microscopy); assay type: cell-based, mouse; details: incubated for one hour
Method: Oct4-GFP transgenic MEF transfected with retrovirus expressing Oct4, Sox2, Klf4, and c-Myc were incubated with CDy1 at 3, 5, 7, and 9 dpi for one hour.
After excess CDy1 was washed out by replacing culture medium, fluorescent cell images were taken using fluorescence microscope.
At 3 and 5 dpi, any dramatic morphological differences between the cells were not observed by phase contrast bright field microscopy (FIG. 16).

mESC = assay: Comparison of CDy1 and ALDEFLUOR staining in mESC; assay type: cell-based, mouse; details: fluorescence microscopy
Method: (§1) In this experiment, the cells cultured on 6-well plates were incubated with 1 μM ALDEFLUOR® for one hour at 37° C. and then washed with PBS three times before ALDEFLUOR® assay buffer was added. Bright field (“B.F”) and fluorescence (FITC filter for ALDEFLUOR® and TRITC filter for CDy1) images were taken using a Nikon ECLIPSE Ti fluorescence microscope (Scale bars, 100 μm).
Among the few fluorescent dyes used for stem cell staining (Zijlmans et al., “Modification of Rhodamine Staining Allows Identification of Hematopoietic Stem Cells with Preferential Short-term or Long-term Bone Marrow-Repopulating Ability,” Proc. Natl. Acad. Sci. USA, 92:8901-8905 (1995), which is hereby incorporated by reference in its entirety) is ALDEFLUOR® which employs a fluorescent substrate BODIPY-aminoacetaldehyde for aldehyde dehydrogenase (ALDH)1A1 (Storms et al., “Isolation of Primitive Human Hematopoietic Progenitors on the Basis of Aldehyde Dehydrogenase Activity,” Proc. Natl. Acad. Sci. USA, 96: 9118-9123 (1999), which is hereby incorporated by reference in its entirety). It has been used to identify and isolate certain types of stem cells including hematopoietic, neural, and mammary stem cells as well as cancer stem cells. Whether or not ALDEFLUOR® stains ESC has not been known. […] The stemness of hESC BG01V used in this study was verified by immunocytochemical staining of TRA-1-60 (FIG. 14).

differentiated mESC = assay: CDy1 staining of differentiated mESC after LIF removal; assay type: cell-based, mouse; details: three days culture without LIF
Excerpt: Morphologically distinguishable differentiated cells were observed after three days culture of mESC in the absence of LIF. As shown in the center panel, most of those cells were CDy1 negative, while some other cells that retained mESC morphology were stained by the dye.
On the other hand, removing the LIF from the culture media induced mESC differentiation and it was observed that some cells were morphologically distinguishable from mESC three days later. Most of the differentiated cells were not stained by CDy1, while some other cells with mESC morphology were stained by the dye showing a similar pattern with immunocytochemical staining by Oct4 antibody (FIG. 11).

human ESC (hESC) (BG01V) = assay: Comparison of CDy1 and ALDEFLUOR staining in hESC; assay type: cell-based; details: fluorescence microscopy
Method: as §1
BG01V cells cultured on MEF were selectively stained by CDy1. The expression of hESC marker TRA-1-60 in the CDy1-stained BG01V cells was detected by immunofluorescence staining (Scale bar, 100 μm).
Among the few fluorescent dyes used for stem cell staining (Zijlmans et al., “Modification of Rhodamine Staining Allows Identification of Hematopoietic Stem Cells with Preferential Short-term or Long-term Bone Marrow-Repopulating Ability,” Proc. Natl. Acad. Sci. USA, 92:8901-8905 (1995), which is hereby incorporated by reference in its entirety) is ALDEFLUOR® which employs a fluorescent substrate BODIPY-aminoacetaldehyde for aldehyde dehydrogenase (ALDH)1A1 (Storms et al., “Isolation of Primitive Human Hematopoietic Progenitors on the Basis of Aldehyde Dehydrogenase Activity,” Proc. Natl. Acad. Sci. USA, 96: 9118-9123 (1999), which is hereby incorporated by reference in its entirety). […]

iPSC = assay: CDy1 staining of iPSC colonies generated from Oct4-GFP transgenic mouse MEF; assay type: cell-based
Method: The retroviral packaging cell, PlatE cell, was maintained in DMEM containing 10% FBS, 100 U/ml penicillin, 100 μg/ml streptomycin, 10 μg/mlblasticidin S, and 1 μg/ml puromycin. For the generation of retroviruses, 40 μg of each retroviral vector expressing each mouse Oct4, Sox2, Klf4, and c-Myc was transfected together using Lipofectamine™ 2000 (Invitrogen, Carlsbad, Calif.) into PlatE cells plated at a density of 8×10^6 cells/10 cm cell culture dish and cultured overnight in DMEM containing 10% FBS. Medium was changed five hours after transfection to normal maintenance medium and incubated further in a humidified atmosphere of 5% CO2 and 95% air at 37° C. Culture supernatant was harvested 48 hours after transfection, filtered through a 0.45 μm syringe filter, concentrated by using amicon ultra-15 Centrifugal filter units (Millipore, Billerica, Mass.), and stored at −80° C. until use. For reprogramming, MEFs prepared from E13.5 B6; CBA-Tg(Pou5f1-EGFP)2Mnn/J mouse (Jackson Laboratory, Bar Harbor, Me.) embryo were infected with retrovirus mixture eight hours later. Polybrene (Sigma-Aldrich, St. Louis, Mo.) was added at a concentration of 10 μg/ml to increase virus adsorption. Infected MEFs were harvested 48 hours later by trypsinization and plated onto mytomycin C treated MEF feeder cells. The cells were maintained in mESC culture medium that was changed every day until designated time points.
The reprogramming was performed in a 6-well culture dish by retroviral introduction of four transcriptions factors: Oct4, Sox2, Klf4, and c-Myc (Takahashi et al., “Induction of Pluripotent Stem Cells from Mouse Embryonic and Adult Fibroblast Cultures by Defined Factors,” Cell, 126(4):663-676 (2006), which is hereby incorporated by reference in its entirety). iPSC generation was verified by GFP expression, alkaline phosphatase assay, and immunostaining of SSEA-1 at 17 days post infection (“dpi”). […] When the 155 colonies grown in 6-well plate cells were treated with CDy1 at 17 dpi, 101 colonies (65%) were both CDy1 and GFP positive, 26 (17%) were CDy1-only positive, 4 (3%) were GFP-only positive and 24 (15%) were negative both for CDy1 and GFP, despite the fact that the morphology of the colonies was indistinguishable (FIG. 9).
In a cell culture treated with CDy1 at an earlier time point of iPSC generation (10 dpi), increasing numbers of CDy1-stained colonies started to show GFP signal during the following days (FIG. 10A). To perform a more systematic analysis, the cells were stained with CDy1 at 2 dpi (i.e., when iPSC was not distinguishable by any means) and the CDy1 and GFP signals were tracked by daily acquisition of cell images using an ImageXpress^MICRO system. At 10 dpi, when small colonies started to appear, 342 CDy1-positive but GFP-negative colonies were selected and their GFP expression was followed until 25 dpi. An increasing number of colonies started to express GFP during this period, and 338 (99%) out of the 342 tracked colonies were GFP-positive at 25 dpi (FIG. 10B).

differences in number of GFP-positive colonies or cell morphology compared to untreated iPSC (iPSC; 10 to 25 dpi): no detectable differences
SMILES: CCCCN(CCCC)c1ccc2c(-c3cccc(CN4CCOCC4)c3)c3ccc(=N)cc-3oc2c1 [CDy1]
staining at 3 and 5 dpi [1]: scattered single cells stained
staining at 7 and 9 dpi [1]: some of the clusters were stained
staining of mESC (mESC): stained both
staining of differentiated cells (differentiated mESC): not stained
staining of hESC (human ESC (hESC) (BG01V)): stained both
earliest CDy1 staining of the cells that expressed GFP at 12 dpi (iPSC): 6 dpi
selective staining of iPSC colony (iPSC; 17 dpi): selectively stained the iPSC colony
colonies CDy1-only positive (number) (iPSC; 17 dpi, of 155 colonies): 26
colonies CDy1-only positive (percent) (iPSC; 17 dpi, of 155 colonies): 17%
colonies GFP-only positive (number) (iPSC; 17 dpi, of 155 colonies): 4
colonies GFP-only positive (percent) (iPSC; 17 dpi, of 155 colonies): 3%
colonies both CDy1 and GFP positive (number) (iPSC; 17 dpi, of 155 colonies): 101
colonies both CDy1 and GFP positive (percent) (iPSC; 17 dpi, of 155 colonies): 65%
